Laboratory results taken from publication PMC8330742, “New benzothieno[2,3-c]pyridines as non-steroidal CYP17 inhibitors: design, synthesis, anticancer screening, apoptosis induction, and in silico ADME profile studies” (Journal of Enzyme Inhibition and Medicinal Chemistry, 2021).

What was measured:
OVCAR-4 = assay: NCI-60 SRB screen; type: cell-based, human; conditions: Homo sapiens; OVCAR-4; single dose 10^−5 M; read-out: Growth inhibition (%)
786-0 = assay: NCI-60 SRB screen; type: cell-based; conditions: Homo sapiens; 786-0; single dose 10^−5 M; read-out: Growth inhibition (%)
UACC-62 = assay: NCI-60 SRB screen; type: cell-based, human; conditions: Homo sapiens; UACC-62; single dose 10^−5 M; read-out: Growth inhibition (%)
UO-31 = assay: NCI-60 SRB screen; type: cell-based, human; conditions: Homo sapiens; UO-31; single dose 10^−5 M; read-out: Growth inhibition (%)
MALME-3M = assay: NCI-60 SRB screen; type: cell-based, human; conditions: Homo sapiens, single dose 10^−5 M, read-out: Growth inhibition (%)
A549/ATCC = assay: NCI-60 SRB screen; type: cell-based, human; conditions: Homo sapiens, single dose 10^−5 M, read-out: Growth inhibition (%)
IGROV1 = assay: NCI-60 SRB screen; type: cell-based, human; conditions: Homo sapiens, IGROV-1; IGROV1; single dose 10^−5 M; read-out: Growth inhibition (%)
SW-620 = assay: NCI-60 SRB screen; type: cell-based; conditions: Homo sapiens; SW-620; single dose 10^−5 M; read-out: Growth inhibition (%)
HOP-92 = assay: NCI-60 SRB screen; type: cell-based, human; conditions: Homo sapiens; HOP-92; single dose 10^−5 M; read-out: Growth inhibition (%)
MOLT-4 = assay: NCI-60 SRB screen; type: cell-based; conditions: Homo sapiens; MOLT-4; single dose 10^−5 M; read-out: Growth inhibition (%)
SK-MEL-2 = assay: NCI-60 SRB screen; type: cell-based, human; conditions: Homo sapiens; SK-MEL-2; single dose 10^−5 M; read-out: Growth inhibition (%)
HCC-2998 = assay: NCI-60 SRB screen; type: cell-based, human; conditions: Homo sapiens; HCC-2998; single dose 10^−5 M; read-out: Growth inhibition (%)
SN12C = assay: NCI-60 SRB screen; type: cell-based, human; conditions: Homo sapiens, SN12C; SN 12 C; single dose 10^−5 M; read-out: Growth inhibition (%)
K-562 = assay: NCI-60 SRB screen; type: cell-based, human; conditions: Homo sapiens, K562; K-562; single dose 10^−5 M; read-out: Growth inhibition (%)
MDA-MB-435 = assay: NCI-60 SRB screen; type: cell-based; conditions: Homo sapiens, MDA-MB-435, read-out: Growth inhibition (%)
SK-MEL-5 = assay: NCI-60 SRB screen; type: cell-based, human; conditions: Homo sapiens; SK-MEL-5; single dose 10^−5 M; read-out: Growth inhibition (%)
SK-MEL-28 = assay: NCI-60 SRB screen; type: cell-based; conditions: Homo sapiens; SK-MEL-28; single dose 10^−5 M; read-out: Growth inhibition (%)
NCI/ADR-RES = assay: NCI-60 SRB screen; type: cell-based, human; conditions: Homo sapiens, single dose 10^−5 M, read-out: Growth inhibition (%)
[1] = system: panel of 60 cancer cell lines; assay: NCI-60 SRB screen, mean or range over the panel; type: cell-based, human; conditions: Homo sapiens; mean over the cell lines; single dose 10^−5 M; read-out: Mean growth inhibition (%)
RXF 393 = assay: NCI-60 SRB screen; type: cell-based, human; conditions: Homo sapiens; RXF 393; single dose 10^−5 M; read-out: Growth inhibition (%)
OVCAR-3 = assay: NCI-60 SRB screen; type: cell-based, human; conditions: Homo sapiens; OVCAR-3; single dose 10^−5 M; read-out: Growth inhibition (%)
ACHN = assay: NCI-60 SRB screen; type: cell-based; conditions: Homo sapiens, single dose 10^−5 M, read-out: Growth inhibition (%)
NCI-H460 = assay: NCI-60 SRB screen; type: cell-based, human; conditions: Homo sapiens; NCI-H460; single dose 10^−5 M; read-out: Growth inhibition (%)
NCI-H322M = assay: NCI-60 SRB screen; type: cell-based, human; conditions: Homo sapiens, single dose 10^−5 M, read-out: Growth inhibition (%)
UACC-257 = assay: NCI-60 SRB screen; type: cell-based, human; conditions: Homo sapiens, UACC-257; UACC-275 (so in the source); single dose 10^−5 M; read-out: Growth inhibition (%)
HT-29 = assay: NCI-60 SRB screen; type: cell-based; conditions: Homo sapiens; HT-29; single dose 10^−5 M; read-out: Growth inhibition (%)
HCT-15 = assay: NCI-60 SRB screen; type: cell-based, human; conditions: Homo sapiens; HCT-15; single dose 10^−5 M; read-out: Growth inhibition (%)
SR = assay: NCI-60 SRB screen; type: cell-based; conditions: Homo sapiens, single dose 10^−5 M, read-out: Growth inhibition (%)
HCT-116 = assay: NCI-60 SRB screen; type: cell-based, human; conditions: Homo sapiens; HCT-116; single dose 10^−5 M; read-out: Growth inhibition (%)
LOX IMVI = assay: NCI-60 SRB screen; type: cell-based, human; conditions: Homo sapiens, single dose 10^−5 M, read-out: Growth inhibition (%)
CCRF-CEM = assay: NCI-60 SRB screen; type: cell-based; conditions: Homo sapiens, single dose 10^−5 M, read-out: Growth inhibition (%)
KM12 = assay: NCI-60 SRB screen; type: cell-based, human; conditions: Homo sapiens; KM12; single dose 10^−5 M; read-out: Growth inhibition (%)
HOP-62 = assay: NCI-60 SRB screen; type: cell-based, human; conditions: Homo sapiens; HOP-62; single dose 10^−5 M; read-out: Growth inhibition (%)
EKVX = assay: NCI-60 SRB screen; type: cell-based, human; conditions: Homo sapiens, single dose 10^−5 M, read-out: Growth inhibition (%)
SF-295 = assay: NCI-60 SRB screen; type: cell-based, human; conditions: Homo sapiens; SF-295; single dose 10^−5 M; read-out: Growth inhibition (%)
COLO 205 = assay: NCI-60 SRB screen; type: cell-based, human; conditions: Homo sapiens; COLO 205; single dose 10^−5 M; read-out: Growth inhibition (%)
NCI-H226 = assay: NCI-60 SRB screen; type: cell-based, human; conditions: Homo sapiens; NCI-H226; single dose 10^−5 M; read-out: Growth inhibition (%)
SK-OV-3 = assay: NCI-60 SRB screen; type: cell-based, human; conditions: Homo sapiens; SK-OV-3; single dose 10^−5 M; read-out: Growth inhibition (%)
NCI-H522 = assay: NCI-60 SRB screen; type: cell-based, human; conditions: Homo sapiens; NCI-H522; single dose 10^−5 M; read-out: Growth inhibition (%)
M14 = assay: NCI-60 SRB screen; type: cell-based, human; conditions: Homo sapiens; M14; single dose 10^−5 M; read-out: Growth inhibition (%)
NCI-H23 = assay: NCI-60 SRB screen; type: cell-based, human; conditions: Homo sapiens; NCI-H23; single dose 10^−5 M; read-out: Growth inhibition (%)
HL-60(TB) = assay: NCI-60 SRB screen; type: cell-based, human; conditions: Homo sapiens; HL-60 (TB); single dose 10^−5 M; read-out: Growth inhibition (%)
TK-10 = assay: NCI-60 SRB screen; type: cell-based, human; conditions: Homo sapiens; TK-10; single dose 10^−5 M; read-out: Growth inhibition (%)
CAKI-1 = assay: NCI-60 SRB screen; type: cell-based, human; conditions: Homo sapiens; CAKI-1; single dose 10^−5 M; read-out: Growth inhibition (%)
SF-268 = assay: NCI-60 SRB screen; type: cell-based, human; conditions: Homo sapiens; SF-268; single dose 10^−5 M; read-out: Growth inhibition (%)

O=[N+]([O-])c1cccc(C2NC(Cl)=C(Cl)c3c2sc2c(F)cccc32)c1 (stereo not drawn) [Compound 7a, 3,4-Dichloro-8-fluoro-1-(3-nitrophenyl)-1,2-dihydro[1]benzothieno[2,3-c] pyridine]
inhibition at 10 µM (OVCAR-4): 3.16%
inhibition at 10 µM (786-0): -7.16%
inhibition at 10 µM (UACC-62): 7.18%
inhibition at 10 µM (UO-31): 30.2%
inhibition at 10 µM (MALME-3M): -2.96%
inhibition at 10 µM (A549/ATCC): 2.3%
inhibition at 10 µM (IGROV1): 10.7%
inhibition at 10 µM (SW-620): 4.18%
inhibition at 10 µM (HOP-92): 14.7%
inhibition at 10 µM (MOLT-4): 15.2%
inhibition at 10 µM (SK-MEL-2): -5.95%
inhibition at 10 µM (HCC-2998): -16.1%
inhibition at 10 µM (SN12C): 2.54%
inhibition at 10 µM (K-562): 18%
inhibition at 10 µM (MDA-MB-435): -9.15%
inhibition at 10 µM (SK-MEL-5): 1.94%
inhibition at 10 µM (SK-MEL-28): -11.4%
inhibition at 10 µM (NCI/ADR-RES): -2.76%
inhibition at 10 µM [1]: 3.15%
inhibition at 10 µM (RXF 393): 7.81%
inhibition at 10 µM (OVCAR-3): -3.96%
inhibition at 10 µM (ACHN): 6.96%
inhibition at 10 µM (NCI-H460): 1.24%
inhibition at 10 µM (NCI-H322M): -2.48%
inhibition at 10 µM (UACC-257): -7.18%
inhibition at 10 µM (HT-29): -1.97%
inhibition at 10 µM (HCT-15): -1.63%
inhibition at 10 µM (SR): 16.2%
inhibition at 10 µM (HCT-116): 13.4%
inhibition at 10 µM (LOX IMVI): 1.24%
inhibition at 10 µM (CCRF-CEM): 2.12%
inhibition at 10 µM (KM12): 3.25%
inhibition at 10 µM (HOP-62): 15.5%
inhibition at 10 µM (EKVX): 7.1%
inhibition at 10 µM (SF-295): -2.06%
inhibition at 10 µM (COLO 205): -14.6%
inhibition at 10 µM (NCI-H226): 14.2%
inhibition at 10 µM (SK-OV-3): 5.95%
inhibition at 10 µM (NCI-H522): 12.7%
inhibition at 10 µM (M14): 4.95%
inhibition at 10 µM (NCI-H23): 8.55%
inhibition at 10 µM (HL-60(TB)): -8.33%
inhibition at 10 µM (TK-10): -37.2%
inhibition at 10 µM (CAKI-1): 18.8%
inhibition at 10 µM (SF-268): 5.16%
